Source: patent US20020137154A1, “Methods for improving cell growth and alcohol production during fermentation” (priority 2000, published 2002)

Columns and labels:
Assay type in all cases: cell-based
[1] = system: recombinant Escherichia coli KO11; experiment: Batch fermentation of E. coli KO11 in 1% CSL medium and xylose with nutrient additives: ethanol production and cell growth; conditions: additive 2 g/L unless indicated; for activity at 2000 µg/mL: Escherichia coli
Procedure: (§1) Two types of media were tested: 1% CSL and Luria broth (LB). Each contained 97 g of either xylose or glucose per liter. Luria Broth consists of, per liter: 10 g Difco® Tryptone, 5 g Difco® Yeast Extract and 5 g NaCl. The 1% CSL medium consists of Corn Steep Liquor (1% w/v) plus mineral salts (mineral salts per liter: 1 g of KH2PO4. 0.5 g of K2HPO4, 3.1 g of (NH4)2SO4, 0.4 g of MgCl2·6H2), and 20 mg FeCl3·6H2O).
(§2) Luria Broth was prepared by autoclaving a 2× nutrient stock containing, per liter: 20 g Difco® Tryptone, 10 g Difo® Yeast Extract, and 10 g NaCl. Sugars (xylose or glucose) were autoclaved separately. A 1% CSL medium was prepared as follows: Commercial Corn Steep Liquor (CSL; 50% dry weight/50% water) was diluted with tap water to make a 20X stock containing 100 g dry weight of Corn Steep Liquor/L and was adjusted to pH 7.2 with NaOH (50%). After sterilization by autoclaving, the 20X CSL stock was clarified by centrifugation at 5000×g for 10 minutes. Magnesium was added as a 100× stock solution (40 g/L MgCl2·6H2O). Iron was added as a 1000× stock solution made by dissolving 20 g FeCl3·6H2O in 175 mL of HCl and adjusting to 1 L with sterile water. Nitrogen, sulfur and phosphorus were added using a 20× stock solution containing the following (per liter): 20 g of KH2PO4, 10 g of K2HPO4 and 62 g of (NH4)2SO4. Stock solutions containing minerals were sterilized separately by autoclaving. Final media was prepared by adding 750 mL of water to 1 L bottle containing 100 g of xylose or glucose.
Inocula were grown in same media used for fermentation and were prepared as follows. Three colonies from a fresh plate were used to inoculate seed cultures: 250-mL flask containing 100 mL medium. These cultures were grown with agitation (120 rpm) for 12-16 hours at 35° C. to a final OD550nm of approximately 2.0-2.5. Cells were harvested by centrifugation at 5000×g for 5 minutes, and resuspended in fresh media to an OD550nm of 0.1. The resulting suspension was distributed into 500-mL beakers containing 345 ml each of fermentation medium. Acetaldehyde was added as indicated. Batch fermentations (35° C., 100 rpm) were maintained at pH 6.5 by the automatic addition of 2N KOH. Cell mass, ethanol, and base addition (2N KOH) were recorded during 96 hours of incubation. […]
(§3) Additives (e.g., as listed in Table 1) were dissolved in 5 mL di-H2O. Solutions with pH lower than 5 were neutralized to pH 6.5 with 2N KOH. Nutritional supplements were then filter-sterilized (0.45 μm filter disk) directly into the fermentation vessel containing the culture. The final concentration of all additives in the culture medium was 2 g/L unless otherwise indicated.
(§4) Cell mass was estimated by measuring OD550nm using Baush & Lomb® Spectronic 70 spectrophotometer. […] Ethanol was measured by gas chromatography using a Varian® 3400 CX gas chromatograph with 1-propanol as an internal standard.
(§5) Tables 1, 3, and 5 show time to completion of fermentation, ethanol production, and volumetric productivity of the fermentation for all concentrations of the compound and the control. Maximum ethanol production is shown in grams/liter (g/L). The ethanol yield is shown in grams of ethanol/grams of added sugar. Maximum volumetric productivity is shown in grams ethanol/(liter)(hour). The average productivity is calculated form the start of fermentation to the completion of fermentation is grams ethanol/(liter)hour).
Tables 2, 4, and 6 show the initial growth of the cells (OD taken after the first 24 hours of fermentation) and the maximum cell density (the time which culture reaches the maximum OD value). […]

[2] = system: recombinant Escherichia coli KO11; experiment: Batch fermentation of E. coli KO11 in 1% CSL medium and glucose with nutrient additives: ethanol production and cell growth; conditions: additive 2 g/L unless indicated; for activity at 2000 µg/mL: Escherichia coli
Procedure: as §1, §2
(§6) Inocula were grown in same media used for fermentation and were prepared as follows. Three colonies from a fresh plate were used to inoculate seed cultures: 250-mL flask containing 100 mL medium. These cultures were grown with agitation (120 rpm) for 12-16 hours at 35° C. to a final OD550nm of approximately 2.0-2.5. Cells were harvested by centrifugation at 5000×g for 5 minutes, and resuspended in fresh media to an OD550nm of 0.1. The resulting suspension was distributed into 500-mL beakers containing 345 ml each of fermentation medium. Acetaldehyde was added as indicated. Batch fermentations (35° C., 100 rpm) were maintained at pH 6.5 by the automatic addition of 2N KOH. Cell mass, ethanol, and base addition (2N KOH) were recorded during 96 hours of incubation.
(§7) Equivalent amounts of distilled water were added instead of the acetaldehyde in control experiments.
as §3, §4, §5
(§8) Tables 2, 4, and 6 show the initial growth of the cells (OD taken after the first 24 hours of fermentation) and the maximum cell density (the time which culture reaches the maximum OD value).
(§9) Acetaldehyde was added to the fermentation medium at five different concentrations and time points. […] Where two additions are indicated, the first volume was added at the start of fermentation and the second was added after 8 hours of fermentation.

[3] = system: recombinant Escherichia coli KO11; experiment: Batch fermentation of E. coli KO11 in Luria broth and xylose with nutrient additives: ethanol production and cell growth; conditions: LB+xylose
Procedure: as §1, §2, §6, §7, §3, §4, §5, §8, §9

[4] = additive 2 g/L unless indicated

O=C(O)CCC(=O)C(=O)O [a-KG, α-ketoglutarate]
Ethanol Production Maximum ([1]; 1% CSL+xylose): 42.32 g/L | Ethanol Production Maximum % Control ([1]; 1% CSL+xylose): 140.70% | Ethanol yield ([1]; 1% CSL+xylose): 0.436 grams of ethanol/grams of added sugar | Initial Growth (OD @ 24 h) % Control ([1]; 1% CSL+xylose): 173.77% | Initial Growth (OD @ 24 h) OD ([1]; 1% CSL+xylose): 3.55 OD | Time to completion ([1]; 1% CSL+xylose): 72 h | Ethanol Production Maximum ([2]; 1% CSL+glucose): 40.33 g/L | Ethanol Production Maximum % Control ([2]; 1% CSL+glucose): 109.03% | Ethanol yield ([2]; 1% CSL+glucose): 0.415 grams of ethanol/grams of added sugar | Initial Growth (OD @ 24 h) % Control ([2]; 1% CSL+glucose): 123.05% | Initial Growth (OD @ 24 h) OD ([2]; 1% CSL+glucose): 3.29 OD | Time to completion ([2]; 1% CSL+glucose): 72 h | Ethanol Production Maximum [3, 4]: 42.47 g/L | Ethanol yield [3, 4]: 0.437 grams of ethanol/grams of added sugar | Initial Growth (OD at 24 h) % Control [3, 4]: 102.79% | Initial Growth (OD at 24 h) OD [3, 4]: 10.27 OD | Time to completion [3, 4]: 48 h

CC(=O)C(=O)O [Pyruvate, pyruvate]
Ethanol Production Maximum ([1]; 1% CSL+xylose): 44.42 g/L | Ethanol yield ([1]; 1% CSL+xylose): 0.457 grams of ethanol/grams of added sugar | Initial Growth (OD @ 24 h) OD ([1]; 1% CSL+xylose): 4.11 OD | Maximum Cell Density Time ([1]; 1% CSL+xylose): 96 h | Volumetric Productivity Average ([1]; 1% CSL+xylose): 0.617 grams ethanol/(liter)(hour) | Volumetric Productivity Maximum ([1]; 1% CSL+xylose): 0.792 grams ethanol/(liter)(hour) | activity at 2000 µg/mL ([1]; 24 h, 1% CSL+xylose, read-out: Initial Growth (OD @ 24 h) % Control): 201% | activity at 2000 µg/mL ([1]; read-out: Ethanol Production Maximum % Control, 1% CSL+xylose): 148% | activity at 2000 µg/mL ([1]; read-out: Volumetric Productivity Average % Control, 1% CSL+xylose): 197% | activity at 2000 µg/mL ([1]; read-out: Volumetric Productivity Maximum % Control, 1% CSL+xylose): 215% | activity at 2000 µg/mL ([1]; 1% CSL+xylose, read-out: Maximum Cell Density % Control): 238% | Ethanol Production Maximum ([2]; 1% CSL+glucose): 42.35 g/L | Ethanol yield ([2]; 1% CSL+glucose): 0.436 grams of ethanol/grams of added sugar | Initial Growth (OD @ 24 h) OD ([2]; 1% CSL+glucose): 3.46 OD | Maximum Cell Density OD ([2]; 1% CSL+glucose): 3.83 OD | Volumetric Productivity Average ([2]; 1% CSL+glucose): 0.441 grams ethanol/(liter)(hour) | Volumetric Productivity Maximum ([2]; 1% CSL+glucose): 0.663 grams ethanol/(liter)(hour) | activity at 2000 µg/mL ([2]; 24 h, 1% CSL+glucose, read-out: Initial Growth (OD @ 24 h) % Control): 129% | activity at 2000 µg/mL ([2]; read-out: Ethanol Production Maximum % Control, 1% CSL+glucose): 114% | activity at 2000 µg/mL ([2]; read-out: Volumetric Productivity Average % Control, 1% CSL+glucose): 114% | activity at 2000 µg/mL ([2]; read-out: Volumetric Productivity Maximum % Control, 1% CSL+glucose): 129% | activity at 2000 µg/mL ([2]; 1% CSL+glucose, read-out: Maximum Cell Density % Control): 142% | Ethanol Production Maximum ([3]; 2 g): 44.35 g/L | Ethanol Production Maximum % Control ([3]; 2 g): 102.96% | Ethanol yield ([3]; 2 g): 0.457 grams of ethanol/grams of added sugar | Initial Growth (OD at 24 h) % Control ([3]; 2 g): 113.09% | Initial Growth (OD at 24 h) OD ([3]; 2 g): 11.30 OD | Maximum Cell Density % Control ([3]; 2 g): 102.29% | Maximum Cell Density OD ([3]; 2 g): 11.30 OD | Maximum Cell Density Time ([3]; 2 g): 24 h | Time to completion ([3]; 2 g): 48 h | Volumetric Productivity Average ([3]; 2 g): 0.924 grams ethanol/(liter)(hour) | Volumetric Productivity Average % Control ([3]; 2 g): 102.96% | Volumetric Productivity Maximum ([3]; 2 g): 1.284 grams ethanol/(liter)(hour) | Volumetric Productivity Maximum % Control ([3]; 2 g): 111.47% | Ethanol Production Maximum ([3]; 4 g): 45.13 g/L | Ethanol Production Maximum % Control ([3]; 4 g): 104.76% | Ethanol yield ([3]; 4 g): 0.465 grams of ethanol/grams of added sugar | Initial Growth (OD at 24 h) % Control ([3]; 4 g): 114.64% | Initial Growth (OD at 24 h) OD ([3]; 4 g): 11.45 OD | Maximum Cell Density % Control ([3]; 4 g): 105.48% | Maximum Cell Density OD ([3]; 4 g): 11.65 OD | Maximum Cell Density Time ([3]; 4 g): 48 h | Time to completion ([3]; 4 g): 48 h | Volumetric Productivity Average ([3]; 4 g): 0.940 grams ethanol/(liter)(hour) | Volumetric Productivity Average % Control ([3]; 4 g): 104.76% | Volumetric Productivity Maximum ([3]; 4 g): 1.166 grams ethanol/(liter)(hour) | Volumetric Productivity Maximum % Control ([3]; 4 g): 101.27%
